These results are taken from ChEMBL document CHEMBL2176918, “Design and optimization of pyrazinecarboxamide-based inhibitors of diacylglycerol acyltransferase 1 (DGAT1) leading to a clinical candidate dimethylpyrazinecarboxamide phenylcyclohexylacetic acid (AZD7687)” (J Med Chem, 2012).

Data set [1] can be described thus: Clearance in C57BL/6 mouse at 8.16 uM/kg, po or 5.4 uM/kg, iv. The data set is classed as ADME, organism-based. Particulars: in vivo.
In data set [2] the target is T1, Diacylglycerol O-acyltransferase 1 (Rattus norvegicus, UniProt Q9ERM3).
T1 sequence (Q9ERM3 whole entry): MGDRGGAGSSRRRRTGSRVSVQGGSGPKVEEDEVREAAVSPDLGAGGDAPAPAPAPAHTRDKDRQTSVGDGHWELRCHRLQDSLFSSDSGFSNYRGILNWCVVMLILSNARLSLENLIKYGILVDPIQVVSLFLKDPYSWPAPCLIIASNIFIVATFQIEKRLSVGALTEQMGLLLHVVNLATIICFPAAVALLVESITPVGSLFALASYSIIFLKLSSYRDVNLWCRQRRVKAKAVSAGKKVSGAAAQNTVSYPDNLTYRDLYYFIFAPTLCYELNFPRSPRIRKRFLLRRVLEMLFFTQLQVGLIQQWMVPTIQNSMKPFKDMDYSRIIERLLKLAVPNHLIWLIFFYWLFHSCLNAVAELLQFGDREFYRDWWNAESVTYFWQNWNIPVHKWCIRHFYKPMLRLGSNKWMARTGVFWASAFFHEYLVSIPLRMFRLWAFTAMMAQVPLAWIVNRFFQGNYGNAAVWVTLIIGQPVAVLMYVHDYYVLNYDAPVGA
As to the kind of experiment: Inhibition of DGAT1 in rat liver microsomes. Also on record: species or system Microsome. (Microsomes from liver hold many membrane-bound enzymes, among them those of drug oxidation.)

Data set [3] can be described thus: Terminal half life in human at 1 to 20 mg. The data set is classed as ADME, organism-based. To be noted: in vivo, read-out: beta t1/2 (converted).
Data set [4] concerns the target T2, Diacylglycerol O-acyltransferase 1 (Homo sapiens, UniProt O75907).
T2 sequence (O75907 whole entry): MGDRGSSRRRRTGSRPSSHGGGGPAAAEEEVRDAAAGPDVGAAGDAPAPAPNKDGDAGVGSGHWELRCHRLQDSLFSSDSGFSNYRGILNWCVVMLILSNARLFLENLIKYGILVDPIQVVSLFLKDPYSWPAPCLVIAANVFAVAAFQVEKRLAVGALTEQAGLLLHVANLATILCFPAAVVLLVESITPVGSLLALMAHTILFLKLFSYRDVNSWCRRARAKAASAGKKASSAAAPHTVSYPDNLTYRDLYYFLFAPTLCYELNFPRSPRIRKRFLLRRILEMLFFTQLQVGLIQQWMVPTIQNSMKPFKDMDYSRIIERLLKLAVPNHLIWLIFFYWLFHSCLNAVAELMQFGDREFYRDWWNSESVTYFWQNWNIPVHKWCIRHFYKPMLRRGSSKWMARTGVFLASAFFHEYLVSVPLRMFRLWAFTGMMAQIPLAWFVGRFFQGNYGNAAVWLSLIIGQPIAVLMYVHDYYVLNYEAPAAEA
As to the kind of experiment: Inhibition of DGAT1 in human liver microsomes. Also on record: species or system Microsome.

Data set [5] in a line: Fraction unbound in rat plasma. Type of data set: ADME, cell-free.
Data set [6] can be described thus: Fraction unbound in dog plasma. The data set is classed as ADME, cell-free, Canis lupus familiaris.
Data set [7] can be described thus: Volume of distribution in Han-Wistar rat at 5.4 uM/kg, po or 2.7 uM/kg, iv. To be noted: in vivo. Type of data set: ADME, organism-based.
In data set [8] the target is T3, Fatty-acid amide hydrolase 1 (Homo sapiens, UniProt O00519).
T3 sequence (O00519 whole entry): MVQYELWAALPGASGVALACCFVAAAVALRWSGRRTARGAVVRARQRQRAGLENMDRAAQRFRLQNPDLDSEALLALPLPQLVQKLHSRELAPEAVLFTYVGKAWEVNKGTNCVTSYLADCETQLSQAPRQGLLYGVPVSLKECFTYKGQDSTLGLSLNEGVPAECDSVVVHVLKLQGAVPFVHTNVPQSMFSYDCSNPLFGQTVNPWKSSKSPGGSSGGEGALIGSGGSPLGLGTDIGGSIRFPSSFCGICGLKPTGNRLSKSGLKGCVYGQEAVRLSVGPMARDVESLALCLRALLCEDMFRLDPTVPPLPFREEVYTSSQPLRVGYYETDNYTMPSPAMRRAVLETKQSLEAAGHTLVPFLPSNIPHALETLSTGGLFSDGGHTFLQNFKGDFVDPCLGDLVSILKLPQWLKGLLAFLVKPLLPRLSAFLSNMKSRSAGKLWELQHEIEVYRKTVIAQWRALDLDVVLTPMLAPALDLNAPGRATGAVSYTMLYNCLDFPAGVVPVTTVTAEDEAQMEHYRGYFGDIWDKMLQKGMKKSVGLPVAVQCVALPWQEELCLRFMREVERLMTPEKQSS
As to the kind of experiment: Inhibition of FAAH.

Data set [9] concerns Rattus norvegicus. As to the kind of experiment: Inhibition of plasma triacylglycerol excursion in 14 hrs fasted Han-Wistar rat at administered orally 2 hrs before bolus corn oil administration measured 1.5 hrs post corn oil challenge by oral lipid tolerance test relative to control.
Data set [10] can be described thus: Chemical stability in pH 1 to 10 buffer at 25 degC. The data set is classed as physicochemical.
The nature of data set [11]: Photostability stability by Hanau sun test. The data set is classed as physicochemical.
Data set [12] can be described thus: Solubility in 0.1 M phosphate buffer at pH 7.4 at 25 degC incubated for 24 hrs.
The target in the next data set is Cytochrome P450 2D6 (Homo sapiens, UniProt P10635). As to the kind of experiment: Inhibition of CYP2D6. The data set is classed as ADME.
Chain of Cytochrome P450 2D6 (P10635 whole entry): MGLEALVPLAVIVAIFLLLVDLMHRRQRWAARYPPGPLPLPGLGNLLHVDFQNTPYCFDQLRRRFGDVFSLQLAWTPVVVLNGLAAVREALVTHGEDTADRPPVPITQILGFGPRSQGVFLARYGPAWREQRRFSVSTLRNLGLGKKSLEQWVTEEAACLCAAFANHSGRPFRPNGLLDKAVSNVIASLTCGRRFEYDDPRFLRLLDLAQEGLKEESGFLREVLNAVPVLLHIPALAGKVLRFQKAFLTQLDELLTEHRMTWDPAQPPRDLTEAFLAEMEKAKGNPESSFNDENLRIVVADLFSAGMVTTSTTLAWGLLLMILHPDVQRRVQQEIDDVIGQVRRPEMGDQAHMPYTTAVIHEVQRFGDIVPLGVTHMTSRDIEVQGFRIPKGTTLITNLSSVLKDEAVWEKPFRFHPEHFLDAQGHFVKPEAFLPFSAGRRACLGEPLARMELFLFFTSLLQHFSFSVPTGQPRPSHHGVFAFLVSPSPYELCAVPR
Data set [13] addresses T2, Diacylglycerol O-acyltransferase 1.
Description: Inhibition of human recombinant DGAT1 expressed in Sf9 cells by liquid scintillography
Data set [14] addresses T1, Diacylglycerol O-acyltransferase 1. As to the kind of experiment: Inhibition of DGAT1 in rat adipose tissue assessed as reduction in triacylglycerol synthesis. Type of data set: tissue-based.
A short description of data set [15]: Intrinsic clearance in human hepatocytes assessed as parent compound disappearance at 1 uM per 10^6 cells. The data set is classed as ADME, cell-based, Hepatocyte. Particulars: read-out: CLH.
Data set [16] is described as follows: Intrinsic clearance in rat hepatocytes assessed as parent compound disappearance at 1 uM per 10^6 cells. The data set is classed as ADME, cell-based, Hepatocyte. To be noted: read-out: CLH.
The subject of data set [17] is Rattus norvegicus. As to the kind of experiment: Inhibition of adipose triacylglycerol synthesis in 14 hrs fasted Han-Wistar rat assessed as decrease in ratio of [3H]palmitic acid incorporation in to TAG and DAG at 8 mg/kg administered orally and measured 1.5 hrs post dose relative to control.
For data set [18], the target named is T2, Diacylglycerol O-acyltransferase 1. As to the kind of experiment: Inhibition of DGAT1 in human adipose tissue assessed as reduction in triacylglycerol synthesis.
The next data set deals with T4, Cytochrome P450 1A2 (Homo sapiens, UniProt P05177).
T4 sequence (P05177 whole entry): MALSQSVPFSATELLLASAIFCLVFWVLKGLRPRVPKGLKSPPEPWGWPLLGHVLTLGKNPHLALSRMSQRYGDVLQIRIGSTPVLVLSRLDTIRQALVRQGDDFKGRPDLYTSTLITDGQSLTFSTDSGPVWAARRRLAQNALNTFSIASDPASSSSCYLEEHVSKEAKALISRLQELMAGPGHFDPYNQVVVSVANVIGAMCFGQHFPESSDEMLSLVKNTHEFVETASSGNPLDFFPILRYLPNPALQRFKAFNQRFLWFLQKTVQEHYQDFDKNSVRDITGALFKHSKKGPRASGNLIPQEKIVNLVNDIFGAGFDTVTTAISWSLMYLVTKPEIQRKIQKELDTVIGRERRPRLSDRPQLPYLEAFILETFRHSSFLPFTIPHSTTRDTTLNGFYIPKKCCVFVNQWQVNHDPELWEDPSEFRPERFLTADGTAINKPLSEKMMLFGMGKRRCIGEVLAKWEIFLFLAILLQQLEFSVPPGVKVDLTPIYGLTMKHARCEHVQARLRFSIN
As to the kind of experiment: Inhibition of CYP1A2. Type of data set: ADME.

Data set [19] is described as follows: Intrinsic clearance in mouse hepatocytes assessed as parent compound disappearance at 1 uM per 10^6 cells. Type of data set: ADME, cell-based, Hepatocyte. Particulars: read-out: CLH.

Converted amounts (≈) assume the structure as drawn.

By IC50 is commonly meant the concentration that inhibits the measured activity by half. A word on the fraction unbound: it is the share of the substance not bound to proteins or other matrix. Read a high fraction unbound as weak binding. In general, solubility refers to how much of the substance goes into solution per volume. Read a low solubility as little dissolved substance. For the molecule `Cc1nc(C)c(-c2ccc(C3CCC(CC(=O)O)CC3)cc2)nc1C(N)=O` (stereo unspecified) [AZD-7687], the clearance in data set [1] was 0.77 mL/min/kg. Further, the half-inhibitory concentration (IC50) in [2] was 0.15 µM; in data set [4], 0.07 µM; in data set [8] it was 3.7 µM; in the data set with Rattus norvegicus [9], 0.042 µM; against Cytochrome P450 2D6, more than 30 µM; in data set [13], 0.08 µM. In addition, the IC50 is 0.09 µM in [14], 0.132 µM in the data set with Rattus norvegicus [17], 0.01 µM in data set [18] and more than 30 µM on Cytochrome P450 1A2. The half-life is 9 h in [3], more than 100 days in [10] and 7.6 h in [11]. The results for the free fraction (fraction unbound) in data set [5] and in data set [6] were 0.03 and 0.06, respectively. The same molecule returned a Vd in data set [7] of 0.35 L/kg. Further, the solubility at 24 h in [12] stood at 700 µM (≈ 257 µg/mL). Moreover, the hepatocyte CLint at 1 µM was less than 2 µL/min/1e6 cells in data set [15], less than 2 µL/min/1e6 cells in [16] and 7.3 µL/min/1e6 cells in data set [19].
